Results published in the NIST ThermoML archive (doi:10.1021/je700260f).

Settings: Liquid, Vibrating tube method

FC(C(F)(F)F)C(F)(F)F [1,1,1,2,3,3,3-heptafluoropropane]
Settings	mass density [kg/m3]
293.15 K, 27338 kPa	1533.2
293.15 K, 27374 kPa	1533.1
293.15 K, 27410 kPa	1533.2
293.15 K, 27435 kPa	1533.3
293.15 K, 27481 kPa	1533.5
293.15 K, 27522 kPa	1533.7
293.15 K, 27553 kPa	1533.7
293.15 K, 27589 kPa	1533.9
293.15 K, 27619 kPa	1533.9
293.15 K, 27655 kPa	1534
293.15 K, 27692 kPa	1534.2
293.15 K, 27728 kPa	1534.3
293.15 K, 27759 kPa	1534.5
293.15 K, 27800 kPa	1534.5
293.15 K, 27841 kPa	1534.6
293.15 K, 27871 kPa	1534.8
293.15 K, 27912 kPa	1534.9
293.15 K, 27953 kPa	1534.9
293.15 K, 27984 kPa	1535.1
293.15 K, 28026 kPa	1535.1
293.15 K, 28067 kPa	1535.5
293.15 K, 28097 kPa	1535.4
293.15 K, 28144 kPa	1535.6
293.15 K, 28185 kPa	1535.7
293.15 K, 28216 kPa	1535.9
293.15 K, 28258 kPa	1536
293.15 K, 28300 kPa	1536
293.15 K, 28327 kPa	1536.1
293.15 K, 28369 kPa	1536.4
293.15 K, 28411 kPa	1536.5
293.15 K, 28442 kPa	1536.7
293.15 K, 28484 kPa	1536.7
293.15 K, 28520 kPa	1536.8
293.15 K, 28556 kPa	1536.8
293.15 K, 28588 kPa	1537.1
293.15 K, 28619 kPa	1537.1
293.15 K, 28667 kPa	1537.3
293.15 K, 28709 kPa	1537.3
293.15 K, 28735 kPa	1537.5
293.15 K, 28783 kPa	1537.7
293.15 K, 28823 kPa	1537.8
293.15 K, 28855 kPa	1537.9
293.15 K, 28908 kPa	1538.1
293.15 K, 28956 kPa	1538.2
293.15 K, 28983 kPa	1538.2
293.15 K, 29030 kPa	1538.3
293.15 K, 29072 kPa	1538.5
293.15 K, 29104 kPa	1538.5
293.15 K, 29147 kPa	1538.8
293.15 K, 29179 kPa	1538.8
293.15 K, 29229 kPa	1539.1
293.15 K, 29256 kPa	1539.1
293.15 K, 29289 kPa	1539.1
293.15 K, 29337 kPa	1539.3
293.15 K, 29385 kPa	1539.4
293.15 K, 29417 kPa	1539.6
293.15 K, 29460 kPa	1539.7
293.15 K, 29497 kPa	1539.7
293.15 K, 29528 kPa	1540
293.15 K, 29566 kPa	1540
293.15 K, 29603 kPa	1540.2
293.15 K, 29637 kPa	1540.3
293.15 K, 29675 kPa	1540.4
293.15 K, 29718 kPa	1540.6
293.15 K, 29751 kPa	1540.4
293.15 K, 29782 kPa	1540.6
293.15 K, 29810 kPa	1540.8
293.15 K, 29843 kPa	1540.9
293.15 K, 29870 kPa	1540.9
293.15 K, 29903 kPa	1541.1
293.15 K, 29936 kPa	1541.1
293.15 K, 29969 kPa	1541.3
293.15 K, 29997 kPa	1541.2
293.15 K, 30026 kPa	1541.4
293.15 K, 30054 kPa	1541.5
293.15 K, 30083 kPa	1541.6
293.15 K, 30120 kPa	1541.8
293.15 K, 30153 kPa	1541.8
293.15 K, 30181 kPa	1541.9
293.15 K, 30215 kPa	1542
293.15 K, 30248 kPa	1542.1
293.15 K, 30287 kPa	1542.3
293.15 K, 30316 kPa	1542.4
293.15 K, 30350 kPa	1542.5
293.15 K, 30389 kPa	1542.5
293.15 K, 30423 kPa	1542.7
293.15 K, 30456 kPa	1542.8
293.15 K, 30493 kPa	1542.8
293.15 K, 30522 kPa	1542.9
293.15 K, 30560 kPa	1543.2
293.15 K, 30598 kPa	1543.1
293.15 K, 30626 kPa	1543.2
293.15 K, 30669 kPa	1543.4
293.15 K, 30713 kPa	1543.5
293.15 K, 30742 kPa	1543.5
293.15 K, 30776 kPa	1543.6
293.15 K, 30815 kPa	1543.8
293.15 K, 30853 kPa	1543.9
293.15 K, 30887 kPa	1543.9
293.15 K, 30920 kPa	1544.1
293.15 K, 30958 kPa	1544.3
293.15 K, 30982 kPa	1544.4
293.15 K, 31020 kPa	1544.4
293.15 K, 31063 kPa	1544.6
293.15 K, 31092 kPa	1544.7
293.15 K, 31136 kPa	1544.7
293.15 K, 31164 kPa	1544.7
293.15 K, 31189 kPa	1544.9
293.15 K, 31232 kPa	1545.1
293.15 K, 31270 kPa	1545.2
293.15 K, 31299 kPa	1545.2
293.15 K, 31327 kPa	1545.4
293.15 K, 31356 kPa	1545.3
293.15 K, 31400 kPa	1545.5
293.15 K, 31438 kPa	1545.7
293.15 K, 31468 kPa	1545.7
293.15 K, 31506 kPa	1545.8
293.15 K, 31537 kPa	1546
293.15 K, 31563 kPa	1546.1
293.15 K, 31593 kPa	1546.1
293.15 K, 31636 kPa	1546.3
293.15 K, 31669 kPa	1546.4
293.15 K, 31698 kPa	1546.4
293.15 K, 31742 kPa	1546.6
293.15 K, 31786 kPa	1546.7
293.15 K, 31815 kPa	1546.8
293.15 K, 31854 kPa	1546.8
293.15 K, 31882 kPa	1547
293.15 K, 31919 kPa	1547.1
293.15 K, 31954 kPa	1547.1
293.15 K, 31986 kPa	1547.3
293.15 K, 32022 kPa	1547.3
293.15 K, 32055 kPa	1547.6
293.15 K, 32096 kPa	1547.7
293.15 K, 32136 kPa	1547.8
293.15 K, 32163 kPa	1547.7
293.15 K, 32205 kPa	1548
293.15 K, 32245 kPa	1548.1
293.15 K, 32272 kPa	1548.1
293.15 K, 32309 kPa	1548.2
293.15 K, 32338 kPa	1548.3
293.15 K, 32381 kPa	1548.3
293.15 K, 32418 kPa	1548.5
293.15 K, 32447 kPa	1548.7
293.15 K, 32494 kPa	1548.7
293.15 K, 32531 kPa	1548.9
293.15 K, 32565 kPa	1548.9
293.15 K, 32598 kPa	1549
293.15 K, 32635 kPa	1549.1
293.15 K, 32668 kPa	1549.3
293.15 K, 32711 kPa	1549.4
293.15 K, 33629 kPa	1552.1
293.15 K, 33659 kPa	1552.1
293.15 K, 33704 kPa	1552.3
293.15 K, 33734 kPa	1552.3
293.15 K, 33769 kPa	1552.5
293.15 K, 33809 kPa	1552.5
293.15 K, 33844 kPa	1552.5
293.15 K, 33879 kPa	1552.6
293.15 K, 33925 kPa	1552.9
293.15 K, 33976 kPa	1553.1
293.15 K, 34008 kPa	1553
293.15 K, 34053 kPa	1553.2
293.15 K, 34100 kPa	1553.3
293.15 K, 34131 kPa	1553.5
293.15 K, 34173 kPa	1553.5
293.15 K, 34220 kPa	1553.9
293.15 K, 34257 kPa	1553.9
293.15 K, 34293 kPa	1553.8
293.15 K, 34336 kPa	1554
293.15 K, 34374 kPa	1554.1
293.15 K, 34415 kPa	1554.3
293.15 K, 34442 kPa	1554.3
293.15 K, 34464 kPa	1554.4
293.15 K, 34489 kPa	1554.4
293.15 K, 34511 kPa	1554.7
293.15 K, 34523 kPa	1554.6
293.15 K, 34537 kPa	1554.6
293.15 K, 34546 kPa	1554.6
303.14 K, 1230 kPa	1372.6
303.14 K, 7245 kPa	1416.2
303.14 K, 7273 kPa	1416.3
303.14 K, 7298 kPa	1416.5
303.14 K, 7327 kPa	1416.7
303.14 K, 7356 kPa	1416.8
303.14 K, 7384 kPa	1417.1
303.14 K, 7413 kPa	1417.1
303.14 K, 10852 kPa	1437.1
303.14 K, 10890 kPa	1437.1
303.14 K, 10918 kPa	1437.3
303.14 K, 10989 kPa	1437.6
303.14 K, 12092 kPa	1443.4
303.14 K, 12132 kPa	1443.6
303.14 K, 12163 kPa	1443.8
303.14 K, 12207 kPa	1443.9
303.14 K, 12242 kPa	1444.1
303.14 K, 12284 kPa	1444.2
303.14 K, 12330 kPa	1444.6
303.14 K, 12373 kPa	1444.7
303.14 K, 14583 kPa	1455.6
303.14 K, 14620 kPa	1455.8
303.14 K, 14653 kPa	1455.9
303.14 K, 14687 kPa	1456
303.14 K, 14726 kPa	1456.4
303.14 K, 14755 kPa	1456.5
